Assay results taken from patent US20150291565A1, “INDOLE COMPOUNDS AND THEIR USE AS ANTIMICROBIALS” (Memorial Sloan-Kettering Cancer Center, priority 2012, published 2015).
In brackets after ≈: the same amount, converted by molar mass. Like-named read-outs stand apart in the source and are kept apart here.

Tests used:
[1] = tested on: MRSA; experiment: Disk diffusion assay, zone of inhibition, MRSA; assay type: cell-based, Staphylococcus aureus; conditions: disk diffusion zone of inhibition
[2] = tested on: M. smegmatis (mc2155); experiment: Disk diffusion assay, zone of inhibition, M. smegmatis; assay type: cell-based; conditions: disk diffusion zone of inhibition
[3] = tested on: S. aureus ATCC 29213 (MSSA); experiment: Broth dilution MIC, S. aureus ATCC 29213; assay type: cell-based; conditions: Staphylococcus aureus
[4] = tested on: S. aureus ATCC 33591 (MRSA); experiment: Broth dilution MIC, S. aureus ATCC 33591; assay type: cell-based; conditions: for MIC: Staphylococcus aureus
[5] = tested on: S. aureus BAA-39 (MDR); experiment: Broth dilution MIC, S. aureus BAA-39; assay type: cell-based; conditions: for MIC: Staphylococcus aureus, BAA39
[6] = tested on: S. pneumoniae ATCC 6301 (PSSP); experiment: Broth dilution MIC, S. pneumoniae ATCC 6301; assay type: cell-based; conditions: Streptococcus pneumoniae
[7] = tested on: S. pneumoniae ATCC 700674 (PRSP); experiment: Broth dilution MIC, S. pneumoniae ATCC 700674; assay type: cell-based; conditions: Streptococcus pneumoniae
[8] = tested on: E. faecalis ATCC 29212 (VRE); experiment: Broth dilution MIC, E. faecalis ATCC 29212; assay type: cell-based
[9] = tested on: E. faecium ATCC 700221 (VRE); experiment: Broth dilution MIC, E. faecium ATCC 700221; assay type: cell-based
[10] = tested on: E. faecium CT-26; experiment: Broth dilution MIC, E. faecium CT-26; assay type: cell-based; conditions: Enterococcus faecium
[11] = tested on: E. coli ECM 1694; experiment: Broth dilution MIC, E. coli ECM 1694; assay type: cell-based; conditions: Escherichia coli
[12] = tested on: E. coli ATCC 25922; experiment: Broth dilution MIC, E. coli ATCC 25922; assay type: cell-based; conditions: Escherichia coli
[13] = tested on: K. pneumoniae ATCC 13883; experiment: Broth dilution MIC, K. pneumoniae ATCC 13883; assay type: cell-based; conditions: Klebsiella pneumoniae
[14] = tested on: K. pneumoniae ATCC 51503; experiment: Broth dilution MIC, K. pneumoniae ATCC 51503; assay type: cell-based; conditions: Klebsiella pneumoniae
[15] = tested on: P. aeruginosa ATCC 9027; experiment: Broth dilution MIC, P. aeruginosa ATCC 9027; assay type: cell-based; conditions: Pseudomonas aeruginosa
[16] = tested on: C. albicans ATCC 14053; experiment: Broth dilution MIC, C. albicans ATCC 14053; assay type: cell-based; conditions: Candida albicans, ATCC14053; Table 1; range 64 down to 0.12 μg/ml
Experimental: In vitro Anti-bacterial & Anti-fungal Activity Assay: All test compounds were prepared as 6.4 mg/ml stock solutions in DMSO and further diluted according to the NCCLS M7-A6 (Page 5) document with sterile water or appropriate diluent. A working stock of 256 μg/ml was used to do 1:2 serial dilutions in 96-well plates. […] The inoculums were prepared by making a direct sterile water suspension of isolated colonies from 18 to 24 hr agar plates for all organisms (Mueller Hinton, Blood Agar or SDA plates). Each bacterial suspension was adjusted to read between 0.09 and 0.11 absorbance at 620 nm. […] These were further diluted 1/100 in appropriate broth for inoculating the 96-well plates. The C. albicans suspension was adjusted to read between 70 and 75% Transmittance at 530 nm and then diluted 1/500 in RPMI+MOPS broth. All aerobic bacterial and fungal plates were incubated for 18 hrs. at 35° C. […] Plates were read using a Beckman Automated Plate Reader at 650 nm. Readings were confirmed by visual examination of plates. (See Table 1, Table 2, Table 3, and Table 4). […] It is important to note that positive results against C. albicans are often indicative of broad spectrum antifungal activity, while negative results are not necessarily conclusory of a lack of activity against other fungus.

[17] = Table 1, range 64 down to 0.12 μg/ml, read-out: MIC S. aureus ATCC 29213
[18] = Table 2, broth dilution MIC in ug/ml, read-out: MIC S aureus ATCC 29213 MSSA
[19] = Table 1, range 64 down to 0.12 μg/ml, read-out: MIC S. aureus ATCC 33591
[20] = Table 2, broth dilution MIC in ug/ml, read-out: MIC S aureus ATCC 33591 MRSA
[21] = Table 1, range 64 down to 0.12 μg/ml, read-out: MIC S. aureus BAA-39
[22] = Table 2, broth dilution MIC in ug/ml, read-out: MIC S aureus BAA-39 MDR
[23] = ATCC6301, Table 1, range 64 down to 0.12 μg/ml, read-out: MIC S. pneumoniae ATCC 6301
[24] = ATCC6301, Table 2, broth dilution MIC in ug/ml, read-out: MIC S pneumonia ATCC 6301 PSSP
[25] = Table 1, range 64 down to 0.12 μg/ml, read-out: MIC S. pneumoniae ATCC 700674
[26] = Table 2, broth dilution MIC in ug/ml, read-out: MIC S pneumonia ATCC 700674 PRSP
[27] = Enterococcus faecalis, Table 1, range 64 down to 0.12 μg/ml, read-out: MIC E. faecalis ATCC 29212
[28] = Table 2, broth dilution MIC in ug/ml, read-out: MIC E faecalis ATCC 29212 VRE
[29] = Enterococcus faecium, Table 1, range 64 down to 0.12 μg/ml, read-out: MIC E. faecium ATCC 700221
[30] = Table 2, broth dilution MIC in ug/ml, read-out: MIC E faecium ATCC 700221 VRE
[31] = CT26, Table 1, range 64 down to 0.12 μg/ml, read-out: MIC E. faecium CT-26
[32] = CT26, Table 2, broth dilution MIC in ug/ml, read-out: MIC E faecium CT-25
[33] = ECM1694, Table 1, range 64 down to 0.12 μg/ml, read-out: MIC E. coli ECM 1694
[34] = ECM1694, Table 2, broth dilution MIC in ug/ml, read-out: MIC E. coli ECM 1693
[35] = ATCC 25921 / ATCC 25922, Table 2, broth dilution MIC in ug/ml, read-out: MIC E. coli ATCC 25921
[36] = ATCC25922, Table 1, range 64 down to 0.12 μg/ml, read-out: MIC E. coli ATCC 25922
[37] = ATCC13883, Table 1, range 64 down to 0.12 μg/ml, read-out: MIC K. pneumoniae ATCC 13883
[38] = ATCC13883, Table 2, broth dilution MIC in ug/ml, read-out: MIC K pneumonia ATCC 13883
[39] = ATCC51503, Table 1, range 64 down to 0.12 μg/ml, read-out: MIC K. pneumoniae ATCC 51503
[40] = ATCC51503, Table 2, broth dilution MIC in ug/ml, read-out: MIC K pneumonia ATCC 51503
[41] = ATCC 9026 / ATCC 9027, Table 2, broth dilution MIC in ug/ml, read-out: MIC P aeruginosa ATCC 9026
[42] = ATCC9027, Table 1, range 64 down to 0.12 μg/ml, read-out: MIC P. aeruginosa ATCC 9027

## Nc1ccc(Nc2ccc(-c3cc4ccc(C5=NCCN5)cc4[nH]3)cc2)cc1 [SKI-8]
[1]
  Zone Size MRSA: 12 mm
[2]
  Zone Size M. smegmatis: 24 mm
[3]; [17]
  MIC: 16 µg/mL (≈ 43.5 µM)
[3]; [18]
  MIC: 16 µg/mL (≈ 43.5 µM)
[4]; [19]
  MIC: 8 µg/mL (≈ 21.8 µM)
[4]; [20]
  MIC: 8 µg/mL (≈ 21.8 µM)
[5]; [21]
  MIC: 16 µg/mL (≈ 43.5 µM)
[5]; [22]
  MIC: 16 µg/mL (≈ 43.5 µM)
[6]; [23]
  MIC: 8 µg/mL (≈ 21.8 µM)
[6]; [24]
  MIC: 8 µg/mL (≈ 21.8 µM)
[7]; [25]
  MIC: 32 µg/mL (≈ 87.1 µM)
[7]; [26]
  MIC: 32 µg/mL (≈ 87.1 µM)
[8]; [27]
  MIC: 8 µg/mL (≈ 21.8 µM)
[8]; [28]
  MIC: 8 µg/mL (≈ 21.8 µM)
[9]; [29]
  MIC: 4 µg/mL (≈ 10.9 µM)
[9]; [30]
  MIC: 4 µg/mL (≈ 10.9 µM)
[10]; [31]
  MIC: 4 µg/mL (≈ 10.9 µM)
[10]; [32]
  MIC: 4 µg/mL (≈ 10.9 µM)
[11]; [33]
  MIC: 2 µg/mL (≈ 5.44 µM)
[11]; [34]
  MIC: 2 µg/mL (≈ 5.44 µM)
[12]; [35]
  MIC: 32 µg/mL (≈ 87.1 µM)
[12]; [36]
  MIC: 32 µg/mL (≈ 87.1 µM)
[13]; [37]
  MIC: > 64 µg/mL
[13]; [38]
  MIC: 64 µg/mL (≈ 174 µM)
[14]; [39]
  MIC: > 64 µg/mL
[14]; [40]
  MIC: 64 µg/mL (≈ 174 µM)
[15]; [41]
  MIC: 64 µg/mL (≈ 174 µM)
[15]; [42]
  MIC: > 64 µg/mL
[16]
  MIC: 64 µg/mL (≈ 174 µM)

## c1cnc(-c2ccc(Nc3ccc(-c4cc5ccc(C6=NCCN6)cc5[nH]4)cc3)cc2)cn1 [SKI-10]
[1]
  Zone Size MRSA: 11 mm
[2]
  Zone Size M. smegmatis: 14.3 mm
[3]; Table 3, starting at 4 μg/ml, read-out: MIC S. aureus ATCC 29213
  MIC: 0.5 µg/mL (≈ 1.16 µM)
[3]; [17]
  MIC: 0.5 µg/mL (≈ 1.16 µM)
[3]; [18]
  MIC: 0.5 µg/mL (≈ 1.16 µM)
[4]; [19]
  MIC: 0.5 µg/mL (≈ 1.16 µM)
[4]; [20]
  MIC: 0.5 µg/mL (≈ 1.16 µM)
[4]; Table 3, starting at 4 μg/ml
  MIC S. aureus ATCC 33591: 0.5 µg/mL (≈ 1.16 µM)
[5]; [21]
  MIC: 0.5 µg/mL (≈ 1.16 µM)
[5]; [22]
  MIC: 0.5 µg/mL (≈ 1.16 µM)
[5]; Table 3, starting at 4 μg/ml
  MIC S. aureus BAA-39: 0.5 µg/mL (≈ 1.16 µM)
[6]; [23]
  MIC: ≤ 0.12 µg/mL
[6]; [24]
  MIC: 0.12 µg/mL (≈ 0.279 µM)
[6]; ATCC6301, Table 3, starting at 4 μg/ml, read-out: MIC S. pneumoniae ATCC 6301
  MIC: 0.12 µg/mL (≈ 0.279 µM)
[7]; [25]
  MIC: ≤ 0.12 µg/mL
[7]; [26]
  MIC: 0.12 µg/mL (≈ 0.279 µM)
[7]; Table 3, starting at 4 μg/ml, read-out: MIC S. pneumoniae ATCC 700674
  MIC: 0.12 µg/mL (≈ 0.279 µM)
[8]; [27]
  MIC: 0.25 µg/mL (≈ 0.581 µM)
[8]; [28]
  MIC: 0.25 µg/mL (≈ 0.581 µM)
[8]; Table 3, starting at 4 μg/ml
  MIC E. faecalis ATCC 29212: 0.25 µg/mL (≈ 0.581 µM)
[9]; [29]
  MIC: ≤ 0.12 µg/mL
[9]; Enterococcus faecium, Table 3, starting at 4 μg/ml, read-out: MIC E. faecium ATCC 700221
  MIC: 0.12 µg/mL (≈ 0.279 µM)
[9]; [30]
  MIC: 0.12 µg/mL (≈ 0.279 µM)
[10]; [31]
  MIC: ≤ 0.12 µg/mL
[10]; [32]
  MIC: 0.12 µg/mL (≈ 0.279 µM)
[10]; CT26, Table 3, starting at 4 μg/ml, read-out: MIC E. faecium CT-26
  MIC: 0.12 µg/mL (≈ 0.279 µM)
[11]; [33]
  MIC: 0.25 µg/mL (≈ 0.581 µM)
[11]; [34]
  MIC: 0.25 µg/mL (≈ 0.581 µM)
[11]; ECM1694, Table 3, starting at 4 μg/ml, read-out: MIC E. coli ECM 1694
  MIC: 0.25 µg/mL (≈ 0.581 µM)
[12]; [35]
  MIC: 2 µg/mL (≈ 4.65 µM)
[12]; [36]
  MIC: 2 µg/mL (≈ 4.65 µM)
[13]; [37]
  MIC: 4 µg/mL (≈ 9.29 µM)
[13]; [38]
  MIC: 4 µg/mL (≈ 9.29 µM)
[14]; [39]
  MIC: 8 µg/mL (≈ 18.6 µM)
[14]; [40]
  MIC: 8 µg/mL (≈ 18.6 µM)
[15]; [41]
  MIC: 16 µg/mL (≈ 37.2 µM)
[15]; [42]
  MIC: 16 µg/mL (≈ 37.2 µM)
[16]
  MIC: 8 µg/mL (≈ 18.6 µM)
